Assay results reported in patent US12042486B2, “Use of bulleyaconitine A” (YUNNAN HAOPY PHARMACEUTICALS LTD, priority 2018, dated 2024).
“And” between values parts separate entries of the source, which are not always exact repeats. Equal values may be shown once.

Experiments:
Format in all cases: in vivo, mouse
[1] = system: acute itch caused by histamine; test: Acute itch model: scratching of mice after subcutaneous histamine, BLA given intragastrically 2 h before; details: for Number of scratching in mouse in the histamine group (single animals): between 2 and 2.5 hours after BLA (30 min), individual mouse; for Number of scratching in mouse in the histamine group, average number: 30 min, solvent group 36.56667
Excerpt: (§1) Researches over the years have shown that itch is mainly transmitted by two types of C fibers, with one sensitive to histamine and the other to chloroquine. Therefore, the scratching response of animals caused by subcutaneous injection of histamine or chloroquine is internationally recognized as an acute itch model. The present disclosure is aimed to investigate whether the intragastric administration of bulleyaconitine A (BLA) can inhibit acute itch caused by histamine or chloroquine.
(§2) 6-8 weeks old C57 mice were employed in experiments (body weight of 17-20 grams, from the Experimental Animal Center of Sun Yat-Sen University). The mice were randomly divided into four groups, namely solvent+histamine control group, BLA+histamine group, solvent+chloroquine control group and BLA+chloroquine group. For the convenience of subcutaneous injection and observation of scratching, the hair around the neck and back (at least 3×5 cm) was shaved off under temporary anesthesia with isoflurane three days before the start of the experiments. The control group was given a subcutaneous injection of 50 μl of histamine (2 mg/ml) or chloroquine (4 mg/ml), with an intragastric administration of a solvent (carboxymethyl cellulose) 2 hours before the injection. The experiment group was given an intragastric administration of BLA with different dosages (0.125, 0.25 and 0.5 mg/kg), 2 hours before the injection of histamine or chloroquine. The BLA was administered 2 hours in advance, because it needs 1.5-2 hours for BLA to take effect from its intragastric administration. The number of scratching in each group was counted within 30 minutes for comparison, because the acute scratching response induced by histamine or chloroquine subsided 30 minutes later after drug injection as shown by previous studies.
(§3) During the recording in experiment, the mice were placed in separate, transparent acrylic boxes having a size of 15×15×20 cm each, and with two small openings at top of each box to allow air to circulate. The scratching behavior was recorded as video by a camera, which was placed above mouse because their behaviors of scratching their back or neck mostly happen in an angle of view directly opposite to their upper back.
(§4) In order to minimize attentional shift and eliminate tension as much as possible, each transparent box was supplied with a small amount of padding, to absorb any urine excreted from the mouse. The ambient temperature was kept at 23-27° C., and additionally all the staff were asked to leave during the recording to keep the experimental environment quiet. The experiment was carried out between 9:00-14:00 h. To acclimatize the animals to the test environment, the mouse had been acclimatized in the transparent box for one hour at 9:00 and 13:00 every day since two days before the formal experiment. Because the scratching of a mice often happens quickly, the action from mice starting to scratch its neck or back by its hind paw until the hind paw hitting on the ground or being put into its mouth to clean the dander is taken as one scratching behavior.
(§5) Statistical methods: the number of scratching was represented by average value±standard deviation, and Turkey test was employed to compare the difference between different groups.
(§6) Solution preparation and application method: 0.05 g of BLA was weighed and dissolved in 1000 ml of 0.5% sodium carboxymethyl cellulose solution. Histamine and chloroquine were prepared with 0.9% sterile saline, to make a dosage of histamine 100 μg and chloroquine 200 μg. To minimize the skin injure at the injection site, a thinner needle in 0.3 ml for insulin was connected to the needle port of the microinjector to reduce injure to mouse.

[2] = system: acute itch caused by chloroquine; test: Acute itch model: scratching of mice after subcutaneous chloroquine, BLA given intragastrically 2 h before; details: for Number of scratching in mouse in the chloroquine group (single animals): between 2 and 2.5 hours after BLA (30 min), individual mouse; for Number of scratching in mouse in the chloroquine group, average number: 30 min, solvent group 92.565556
Excerpt: as §1, §2, §3, §4, §5, §6

[3] = Observation of drowsiness or other side effects in mice of the itch experiments
Excerpt: as §2
BLA inhibited the itch caused by histamine or chloroquine in a manner of depending on the dosage of intragastric administration.

[4] = 0.5 mg/kg intragastric, P<0.001 vs solvent group
[5] = oral administration, 0.125-0.5 mg/kg

CCN1C[C@]2(COC)CC[C@H](OC)[C@]34C1[C@H]([C@H](OC)[C@H]23)[C@@]1(OC(C)=O)C[C@H](OC)[C@]2(O)C[C@@H]4[C@@H]1[C@H]2OC(=O)c1ccc(OC)cc1 [BLA, Bulleyaconitine A]
Number of scratching in mouse in the histamine group (single animals) ([1]; 0.125 mg/kg BLA intragastric + histamine s.c.): 22 and 33 and 0 and 18 (2×) and 47 and 43 (3×) and 77 and 60 and 46 (2×) and 42 and 16 and 21 and 87 and 26 and 17 and 38 (3×) and 37 and 3 and 84 and 35 and 64 and 52 and 6 and 25 | Number of scratching in mouse in the histamine group, average number ([1]; 0.125 mg/kg BLA intragastric + histamine, n=30): 37.5 | Inhibition of itching caused by histamine (in words) ([1]; 0.125 mg/kg intragastric): did not inhibit | Number of scratching in mouse in the histamine group, average number ([1]; 0.25 mg/kg BLA intragastric + histamine, n=38): 24.76 | Inhibition of scratching response caused by histamine (in words) ([1]; 0.25 mg/kg intragastric, P<0.05 vs solvent group): significantly inhibited | Number of scratching in mouse in the histamine group (single animals) ([1]; 0.5 mg/kg BLA intragastric + histamine s.c.): 0 (12×) and 50 and 38 and 48 and 26 | Number of scratching in mouse in the histamine group, average number ([1]; 0.5 mg/kg BLA intragastric + histamine, n=16): 10.1325 | Inhibition of acute itch caused by histamine (in words) [1, 4]: completely inhibited | Dose dependence of inhibition of itching caused by histamine [1, 5]: in a dosage-dependent manner | Number of scratching in mouse in the chloroquine group (single animals) ([2]; 0.125 mg/kg BLA intragastric + chloroquine s.c.): 29 and 70 and 90 and 31 and 115 and 185 and 89 and 40 and 130 and 23 and 197 and 24 (2×) and 53 and 10 and 182 and 27 and 26 and 138 and 48 and 41 and 62 and 34 and 93 and 45 | Number of scratching in mouse in the chloroquine group, average number ([2]; 0.125 mg/kg BLA intragastric + chloroquine, n=25): 72.24 | Inhibition of acute itch caused by chloroquine (in words) ([2]; 0.125 mg/kg intragastric, P>0.05, not statistically significant): only had slightly inhibitory effect | Number of scratching in mouse in the chloroquine group (single animals) ([2]; 0.25 mg/kg BLA intragastric + chloroquine s.c.): 43 and 75 (2×) and 136 and 0 (3×) and 33 and 101 and 25 (2×) and 38 and 26 and 30 and 78 (3×) and 34 and 37 and 10 and 64 and 118 and 53 and 17 and 23 and 143 and 80 and 47 | Number of scratching in mouse in the chloroquine group, average number ([2]; 0.25 mg/kg BLA intragastric + chloroquine, n=28): 52.39 | Inhibition of scratching response caused by chloroquine (in words) ([2]; 0.25 mg/kg intragastric, P<0.01 vs solvent group): significantly inhibited | Number of scratching in mouse in the chloroquine group (single animals) ([2]; 0.5 mg/kg BLA intragastric + chloroquine s.c.): 0 (13×) and 27 and 20 and 23 | Number of scratching in mouse in the chloroquine group, average number ([2]; 0.5 mg/kg BLA intragastric + chloroquine, n=16): 4.3875 | Inhibition of acute itch caused by chloroquine (in words) [2, 4]: completely inhibited | Dose dependence of inhibition of itching caused by chloroquine [2, 5]: in a dosage-dependent manner | Drowsiness or other side effects in mouse ([3]; 0.125 mg/kg intragastric): no drowsiness or other side effects in mouse was observed | Drowsiness or other side effects in mouse ([3]; 0.25 mg/kg intragastric): no drowsiness or other side effects in mouse was observed | Drowsiness in mouse ([3]; 0.5 mg/kg intragastric): drowsiness in mouse was observed
